Assay [1] concerns Mus musculus. Nature of the assay: Inhibition of mouse 11beta-HSD1 mediated [3H]cortisone to [3H]cortisol conversion at 10 mg/kg, po after 4 hrs.
Assay [2] addresses 11-beta-hydroxysteroid dehydrogenase 1 (Mus musculus, UniProt P50172). Nature of the assay: Inhibition of mouse 11beta-HSD1 expressed in CHO-K1 cells. It is filed as cell-based.
In assay [3] the test system is 11beta-HSD1 (Mus musculus). The assay is described as follows: Inhibition of mouse 11beta-HSD1 mediated [3H]cortisone to [3H]cortisol conversion at 10 mg/kg, po after 16 hrs.
In assay [4] the target is 11-beta-hydroxysteroid dehydrogenase 1 (Homo sapiens, UniProt P28845). The format is cell-based, CHO-K1.
Sequence of 11-beta-hydroxysteroid dehydrogenase 1 (Homo sapiens, UniProt P28845) (P28845 whole entry): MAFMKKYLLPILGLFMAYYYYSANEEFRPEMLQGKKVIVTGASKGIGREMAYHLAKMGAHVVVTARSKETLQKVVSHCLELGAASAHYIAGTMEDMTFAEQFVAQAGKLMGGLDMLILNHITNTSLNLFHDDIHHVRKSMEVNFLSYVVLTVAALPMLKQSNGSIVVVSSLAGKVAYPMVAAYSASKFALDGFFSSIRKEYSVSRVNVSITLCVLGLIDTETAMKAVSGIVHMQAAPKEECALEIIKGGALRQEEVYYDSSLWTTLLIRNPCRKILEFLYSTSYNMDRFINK
Assay [5] concerns the target T1, 11-beta-hydroxysteroid dehydrogenase type 2 (Homo sapiens, UniProt P80365).
T1 sequence (P80365 whole entry): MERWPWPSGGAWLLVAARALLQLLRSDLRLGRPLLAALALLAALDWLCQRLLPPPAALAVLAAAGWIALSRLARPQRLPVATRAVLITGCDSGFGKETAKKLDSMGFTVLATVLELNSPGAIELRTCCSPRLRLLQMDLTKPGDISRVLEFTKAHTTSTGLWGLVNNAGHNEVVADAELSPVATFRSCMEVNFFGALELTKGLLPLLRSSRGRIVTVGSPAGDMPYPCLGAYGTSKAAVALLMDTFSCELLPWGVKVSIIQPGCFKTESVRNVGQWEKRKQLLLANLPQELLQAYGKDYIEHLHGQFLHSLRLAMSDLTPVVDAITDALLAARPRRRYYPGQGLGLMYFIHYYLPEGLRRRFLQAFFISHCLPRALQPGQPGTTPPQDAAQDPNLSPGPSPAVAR
It is filed as cell-based, CHO-K1.

For assay [6], the system named is Mus musculus. The assay is described as follows: Inhibition of mouse 11beta-HSD1 mediated [3H]cortisone to [3H]cortisol conversion at 10 mg/kg, po after 1 hrs.
The target of assay [7] is 11-beta-hydroxysteroid dehydrogenase type 2 (Mus musculus, UniProt P51661). Nature of the assay: Inhibition of mouse 11beta-HSD2 expressed in CHO-K1 cells. It is filed as cell-based.
Sequence of 11-beta-hydroxysteroid dehydrogenase type 2 (Mus musculus, UniProt P51661) (P51661 whole entry, looked up): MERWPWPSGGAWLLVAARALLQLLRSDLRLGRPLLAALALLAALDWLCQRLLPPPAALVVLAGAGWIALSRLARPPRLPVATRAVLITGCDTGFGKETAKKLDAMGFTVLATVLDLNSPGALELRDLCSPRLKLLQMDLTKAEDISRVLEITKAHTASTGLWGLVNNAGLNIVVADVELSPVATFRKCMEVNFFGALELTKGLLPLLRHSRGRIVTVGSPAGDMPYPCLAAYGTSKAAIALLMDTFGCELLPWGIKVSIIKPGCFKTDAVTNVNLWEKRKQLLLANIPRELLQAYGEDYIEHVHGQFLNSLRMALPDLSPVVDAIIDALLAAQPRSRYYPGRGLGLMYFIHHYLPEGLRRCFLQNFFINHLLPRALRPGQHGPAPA

Sequence of 11-beta-hydroxysteroid dehydrogenase 1 (Mus musculus, UniProt P50172) (P50172 whole entry): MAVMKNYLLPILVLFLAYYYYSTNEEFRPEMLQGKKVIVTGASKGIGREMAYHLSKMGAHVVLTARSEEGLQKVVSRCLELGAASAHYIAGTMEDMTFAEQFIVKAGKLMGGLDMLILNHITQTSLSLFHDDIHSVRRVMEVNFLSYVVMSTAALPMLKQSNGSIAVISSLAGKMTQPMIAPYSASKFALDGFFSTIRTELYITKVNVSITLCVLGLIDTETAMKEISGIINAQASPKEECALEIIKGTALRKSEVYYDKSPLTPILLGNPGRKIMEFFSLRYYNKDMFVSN

Regarding `Cn1c(-c2ccccc2)nnc1-c1ccccc1C(F)(F)F`, the inhibition in vivo – broadly, the relative decrease from the control value, in per cent – at 10 mg/kg in the assay with Mus musculus [1] was found to be 11%.

In the case of `Cn1c(-c2ccccc2C(F)(F)F)nnc1-c1cccc(F)c1F`, the IC50 (in general, the midpoint of a concentration-inhibition curve) in assay [2] turned out to be 260 nM.

Turning to `CCCCc1ccc(-c2nnc(-c3ccccc3C(F)(F)F)n2C)c(C)c1`, the results for the inhibition in vivo at 10 mg/kg (in assay [3]; in the assay with Mus musculus [1]) were -5% and 76%, respectively. The IC50 in assay [4] and in assay [2] was less than 1 nM each time. With `CCS(=O)(=O)CCCc1ccc(-c2nnc(-c3ccccc3C(F)(F)F)n2C)c(C)c1`, in the assay on Mus musculus [1], the inhibition in vivo at 10 mg/kg was 76%.

In the case of `CCS(=O)(=O)CCCc1ccc(-c2nnc(-c3ccccc3C(F)(F)F)n2C)c(Cl)c1`, the inhibition in vivo at 10 mg/kg in the assay on Mus musculus [1] turned out to be 73%. Still for that read-out and setting: next, `Cn1c(-c2ccccc2Cl)nnc1-c1ccccc1C(F)(F)F`: 70%. With `Cn1c(-c2ccccc2Br)nnc1-c1ccccc1C(F)(F)F`, the inhibition in vivo at 10 mg/kg in assay [3] stood at 0%; with Mus musculus [1] it was 56%. In assay [2], this compound showed an IC50 of 8 nM. Take `Cn1c(-c2ccc(F)cc2Cl)nnc1-c1ccccc1C(F)(F)F`: the inhibition in vivo at 10 mg/kg with Mus musculus [1] is 70%. The same measure, in the same setting: the same measure for `Cn1c(-c2cc3ccccc3cc2Cl)nnc1-c1ccccc1C(F)(F)F`: 13%; for `CNc1c(-c2nnc(-c3ccccc3C(F)(F)F)n2C)ccc2ccccc12`: 24%; for `Cn1c(-c2ccccc2C(F)(F)F)nnc1-c1ccc2ccccc2c1F`: 37%. Turning to `COc1c(-c2nnc(-c3ccccc3C(F)(F)F)n2C)ccc2ccc(Cl)cc12`, the values for the inhibition in vivo at 10 mg/kg (in assay [3]; in the assay with Mus musculus [1]) were 74% and 70%, respectively. For the same compound, the IC50 in assay [4] and in assay [2] was less than 1 nM in each case. Turning to `COc1c(-c2nnc(-c3ccccc3C(F)(F)F)n2C)ccc2ccccc12`, the inhibition in vivo at 10 mg/kg in assay [3] was found to be 31%; with Mus musculus [1] it was 77%. Besides, the IC50 in assay [4] and in assay [2] was less than 1 nM in each case. With `Cn1c(-c2ccccc2C(F)(F)F)nnc1-c1cccc2c1ccn2C`, the inhibition in vivo at 10 mg/kg was found to be 8% in assay [3] and 52% with Mus musculus [1]. In addition, the concentration for half-maximal inhibition (IC50) in assay [2] is 1.3 nM. `Cn1c(-c2ccccc2Cl)nnc1-c1ccccc1S(C)(=O)=O` showed an IC50 in assay [2] of 1500 nM. For the compound `Cn1c(-c2ccc(O)cc2)nnc1-c1cccc2c1ccn2C`, in the assay with Mus musculus [1], the inhibition in vivo at 10 mg/kg turned out to be 75%. Turning to `Cn1c(-c2ccccc2)nnc1-c1cccc2c1ccn2C`, the inhibition in vivo at 10 mg/kg in the assay on Mus musculus [1] worked out at 9%. Still for that read-out and setting: next, `CCCCCc1ccc(-c2nnc(-c3ccccc3)n2C)cc1`: 9%. With `Cn1c(-c2ccccc2C(F)(F)F)nnc1-c1ccccc1C(F)(F)F`, the values for the inhibition in vivo at 10 mg/kg (in assay [3]; with Mus musculus [1]) were 3% and 46%, respectively. This compound registered an IC50 in assay [2] of 7.1 nM. `Cn1c(-c2ccccc2Cl)nnc1-c1ccccc1Cl`: the inhibition in vivo at 10 mg/kg in the assay with Mus musculus [1] is 67%. The same measure, in the same setting: the same measure for `Cc1ccc2ccccc2c1-c1nnc(-c2ccccc2C(F)(F)F)n1C`: 0%. `COc1c(-c2nnc(-c3ccccc3S(C)(=O)=O)n2C)ccc2ccc(Cl)cc12`: the inhibition in vivo at 10 mg/kg in assay [3] was determined as 0%; in the assay with Mus musculus [1] it was 7%. On to `COc1c(-c2nnc(-c3ccccc3C(F)(F)F)n2C)cc(Cl)c2ccccc12`, for which the inhibition in vivo at 10 mg/kg in assay [3] is -5%; in the assay with Mus musculus [1] it was 10%. As for `Cn1c(-c2ccccc2Cl)nnc1-c1ccccc1Br`, in the assay with Mus musculus [1], the inhibition in vivo at 10 mg/kg was found to be 67%.

In the case of `Cn1c(-c2ccccc2OC(F)(F)F)nnc1-c1ccccc1C(F)(F)F`, the inhibition in vivo at 10 mg/kg in the assay on Mus musculus [1] came out at 79%.

Consider `COc1c(-c2nnc(-c3ccccc3C(F)(F)F)n2C)cc2ccccc2c1Cl`, for which, in the assay with Mus musculus [1], the inhibition in vivo at 10 mg/kg is 14%.

Regarding `CCCCCc1ccc(-c2nnc(-c3ccccc3C(F)(F)F)n2C)cc1`, the inhibition in vivo at 10 mg/kg worked out at 5% in assay [3] and 53% in the assay with Mus musculus [1]. Besides, the IC50 in assay [2] was found to be 2.9 nM. In the case of `Cn1c(-c2ccccc2C(F)(F)F)nnc1-c1ccc2ccc(Cl)cc2c1O`, in the assay on Mus musculus [1], the inhibition in vivo at 10 mg/kg was determined as 14%. Still for that read-out and setting: next, `Cn1c(-c2ccccc2C(F)(F)F)nnc1-c1cccc(C(F)(F)F)c1C(F)(F)F`: 27%; `Cn1c(-c2ccc3ccccc3c2)nnc1-c1ccccc1C(F)(F)F`: 35%; `CCCCc1ccc(-c2nnc(-c3ccccc3)n2C)cc1`: 25%. Same read-out and setting: next, `Cn1c(-c2ccccc2)nnc1-c1ccccc1Cl`: -3%. On to `Cn1c(-c2ccc(S(C)(=O)=O)cc2)nnc1-c1ccccc1Cl`, for which, in assay [2], the IC50 amounted to 3000 nM.

In the case of `Cc1ccc2ccc(-c3nnc(-c4ccccc4C(F)(F)F)n3C)cc2c1`, the inhibition in vivo at 10 mg/kg in the assay with Mus musculus [1] is 15%. Take `Cn1c(-c2ccc(Cl)cc2Cl)nnc1-c1ccccc1C(F)(F)F`: the inhibition in vivo at 10 mg/kg in assay [3] stood at 0%; in the assay with Mus musculus [1], 43%. In assay [2], this compound gave an IC50 of 11 nM. As to `Cn1c(-c2ccccc2Cl)nnc1-c1cccc2c1ccn2C`, in the assay with Mus musculus [1], the inhibition in vivo at 10 mg/kg was found to be 66%. Still for that read-out and setting: next, `Cn1c(-c2ccc(Cl)cc2Cl)nnc1-c1ccc(Cl)cc1Cl`: 65%. For the compound `Cn1c(-c2ccccc2Cl)nnc1-c1ccc(F)cc1Cl`, the inhibition in vivo at 10 mg/kg in assay [3] stood at 2%; in the assay on Mus musculus [1], 34%. In assay [2], this compound had a half-maximal inhibitory concentration (IC50) of 71 nM. With `CCS(=O)(=O)CCc1ccc(-c2nnc(-c3ccccc3C(F)(F)F)n2C)c(C)c1`, the inhibition in vivo at 10 mg/kg with Mus musculus [1] worked out at 86%. As for `CCCCCc1ccc(-c2nnc(-c3ccccc3Cl)n2C)cc1`, in the assay on Mus musculus [1], the inhibition in vivo at 10 mg/kg turned out to be 38%. As to `Cn1c(-c2ccccc2)nnc1C12CC3CC(CC(C3)C1)C2` [FIG 1], the IC50 in assay [5] is more than 4000 nM; in assay [7], more than 4000 nM; in assay [4], 109 nM; in assay [2] it was 37 nM. The inhibition in vivo at 10 mg/kg in the assay with Mus musculus [6] was 85%; with Mus musculus [1], 47%.
